Measured values from article PMC5404560, “Towards Selective Mycobacterial ClpP1P2 Inhibitors with Reduced Activity against the Human Proteasome” (Antimicrobial Agents and Chemotherapy, 2017).
In brackets after ≈: the same amount, converted by molar mass. Several values for one entry are separate records, joined by “and”; a condition that tells them apart may be missing. Equal entries are not always repeated. Residues, ends and D or L forms follow the SMILES beside them.

Legend:
MMP 3 = MMP 3 (Homo sapiens, UniProt P08254); assay: Protease panel: MMP 3; type: biochemical; conditions: supplement panel table, test and control compound
Protocol: (§1) Protease panel testing was carried out by Reaction Biology Corporation.

MMP 13 = MMP 13 (Homo sapiens, UniProt P45452); assay: biochemical
TACE = TACE (Homo sapiens, UniProt P78536); assay: biochemical
MMP 7 = MMP 7 (Homo sapiens, UniProt P09237); assay: Protease panel: MMP 7; type: biochemical; conditions: supplement panel table, test and control compound
Protocol: as §1

MMP 12 = target: T1, MMP 12 (Homo sapiens, UniProt P39900); assay: Protease panel: MMP 12; type: biochemical; conditions: supplement panel table, test and control compound
T1 construct: Reaction Biology Corporation (contract testing)
Protocol: as §1

ADAM10 = target: T2, ADAM10 (Homo sapiens, UniProt O14672); assay: Protease panel: ADAM10; type: biochemical; conditions: supplement panel table, test and control compound
T2 construct: Reaction Biology Corporation (contract testing)

MMP 14 = MMP 14 (Homo sapiens, UniProt P50281); assay: Protease panel: MMP 14; type: biochemical; conditions: supplement panel table, test and control compound
Protocol: as §1

HepG2 proteasome = HepG2 proteasome (Homo sapiens, UniProt P20618+P28074); assay: Cell-based proteasome CT-like peptidase inhibition assay (Proteasome-Glo)
Protocol: A cell-based CT-like peptidase assay was performed using the Proteasome-Glo cell-based assay reagent (Promega) according to the manufacturer's guidelines. Briefly, HepG2 cells (10^4 cells/well) were treated with the compounds indicated in the figures for 2 h, followed by incubation with the luminescent substrate for 10 min. Luminescence was detected with a Tecan M200 Pro plate reader.

ClpP1P2 = ClpP1P2 (Mycolicibacterium smegmatis, UniProt A0R197+A0R198); assay: ClpP1P2 inhibition whole-cell RFP-SsrA reporter assay; conditions: M. smegmatis ΔprcAB IC50 (μM) for ClpP1P2, whole-cell RFP-SsrA reporter, 3 h incubation
M. tuberculosis H37Rv = assay: microbe, parasite or virus in culture; type: cell-based; conditions: for MIC50 / MIC90: Mycobacterium tuberculosis, H37RV, 120 h; for MIC50: read-out: MIC50 (μM) against M. tuberculosis H37Rv; for MIC90: read-out: MIC90 (μM) against M. tuberculosis H37Rv
M. smegmatis ΔprcAB = type: cell-based; conditions: 24 h exposure, OD600; concentration inhibiting 50% of growth
Neprilysin = target: T3, Neprilysin (Homo sapiens, UniProt P08473); assay: Protease panel: Neprilysin; type: biochemical; conditions: supplement panel table, test and control compound
T3 construct: Reaction Biology Corporation (contract testing)
Protocol: as §1

Cathepsin G = target: T4, Cathepsin G (Homo sapiens, UniProt P08311); assay: Protease panel: Cathepsin G; type: biochemical; conditions: supplement panel table, test and control compound
T4 construct: Reaction Biology Corporation (contract testing)

Chymase = Chymase (Homo sapiens, UniProt P23946); assay: Protease panel: Chymase; type: biochemical; conditions: supplement panel table, test and control compound
Kallikrein 1 = Kallikrein 1 (Homo sapiens, UniProt P06870); assay: Protease panel: Kallikrein 1; type: biochemical; conditions: supplement panel table, test and control compound
Cathepsin C = target: T5, Cathepsin C (Homo sapiens, UniProt P53634); assay: Protease panel: Cathepsin C; type: biochemical; conditions: supplement panel table, test and control compound
T5 construct: Reaction Biology Corporation (contract testing)

Cathepsin B = target: T6, Cathepsin B (Homo sapiens, UniProt P07858); assay: Protease panel: Cathepsin B; type: biochemical; conditions: supplement panel table, test and control compound
T6 construct: Reaction Biology Corporation (contract testing)

Cathepsin L = Cathepsin L (Homo sapiens, UniProt P07711); assay: Protease panel: Cathepsin L; type: biochemical; conditions: supplement panel table, test and control compound
Cathepsin H = Cathepsin H (Homo sapiens, UniProt P09668); assay: Protease panel: Cathepsin H; type: biochemical; conditions: supplement panel table, test and control compound
Calpain 1 = target: T7, Calpain 1 (Homo sapiens, UniProt P07384); assay: Protease panel: Calpain 1; type: biochemical; conditions: supplement panel table, test and control compound
T7 construct: Reaction Biology Corporation (contract testing)

Cathepsin V = Cathepsin V (Homo sapiens, UniProt O60911); assay: Protease panel: Cathepsin V; type: biochemical; conditions: supplement panel table, test and control compound
Papain = target: T8, Papain (Carica papaya, UniProt P00784); assay: Protease panel: Papain; type: biochemical; conditions: supplement panel table, test and control compound
T8 construct: Reaction Biology Corporation (contract testing)

Cathepsin S = Cathepsin S (Homo sapiens, UniProt P25774); assay: Protease panel: Cathepsin S; type: biochemical; conditions: supplement panel table, test and control compound
Caspase 5 = target: T9, Caspase 5 (Homo sapiens, UniProt P51878); assay: Protease panel: Caspase 5; type: biochemical; conditions: supplement panel table, test and control compound
T9 construct: Reaction Biology Corporation (contract testing)

Caspase 4 = target: T10, Caspase 4 (Homo sapiens, UniProt P49662); assay: Protease panel: Caspase 4; type: biochemical; conditions: supplement panel table, test and control compound
T10 construct: Reaction Biology Corporation (contract testing)

Caspase 8 = target: T11, Caspase 8 (Homo sapiens, UniProt Q14790); assay: Protease panel: Caspase 8; type: biochemical; conditions: supplement panel table, test and control compound
T11 construct: Reaction Biology Corporation (contract testing)

Caspase 9 = target: T12, Caspase 9 (Homo sapiens, UniProt P55211); assay: Protease panel: Caspase 9; type: biochemical; conditions: supplement panel table, test and control compound
T12 construct: Reaction Biology Corporation (contract testing)

Caspase 10 = target: T13, Caspase 10 (Homo sapiens, UniProt Q92851); assay: Protease panel: Caspase 10; type: biochemical; conditions: supplement panel table, test and control compound
T13 construct: Reaction Biology Corporation (contract testing)

Caspase 2 = target: T14, Caspase 2 (Homo sapiens, UniProt P42575); assay: Protease panel: Caspase 2; type: biochemical; conditions: supplement panel table, test and control compound
T14 construct: Reaction Biology Corporation (contract testing)

Caspase 11 = target: T15, Caspase 11 (Mus musculus, UniProt P70343); assay: Protease panel: Caspase 11; type: biochemical; conditions: supplement panel table, test and control compound
T15 construct: Reaction Biology Corporation (contract testing)

Caspase 1 = target: T16, Caspase 1 (Homo sapiens, UniProt P29466); assay: Protease panel: Caspase 1; type: biochemical; conditions: supplement panel table, test and control compound
T16 construct: Reaction Biology Corporation (contract testing)

Caspase 7 = target: T17, Caspase 7 (Homo sapiens, UniProt P55210); assay: Protease panel: Caspase 7; type: biochemical; conditions: supplement panel table, test and control compound
T17 construct: Reaction Biology Corporation (contract testing)
T17 sequence (P55210 whole entry, species assumed): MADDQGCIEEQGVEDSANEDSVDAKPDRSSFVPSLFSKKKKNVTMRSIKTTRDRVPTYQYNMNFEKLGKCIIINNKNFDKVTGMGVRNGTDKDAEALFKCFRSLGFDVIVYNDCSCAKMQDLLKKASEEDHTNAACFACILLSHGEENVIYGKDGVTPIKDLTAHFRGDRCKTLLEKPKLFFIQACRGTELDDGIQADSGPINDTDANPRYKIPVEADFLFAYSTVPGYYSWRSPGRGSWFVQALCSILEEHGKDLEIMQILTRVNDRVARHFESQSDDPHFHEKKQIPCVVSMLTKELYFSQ

Sequence of ClpP1P2 (A0R198 4-203): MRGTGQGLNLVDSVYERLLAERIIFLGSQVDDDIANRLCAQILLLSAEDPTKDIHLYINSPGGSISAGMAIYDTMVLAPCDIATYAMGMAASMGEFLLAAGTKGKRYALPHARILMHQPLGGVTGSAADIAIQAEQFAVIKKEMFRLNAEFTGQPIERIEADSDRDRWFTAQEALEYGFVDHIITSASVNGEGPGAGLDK
Sequence of ClpP1P2 (A0R197 17-218): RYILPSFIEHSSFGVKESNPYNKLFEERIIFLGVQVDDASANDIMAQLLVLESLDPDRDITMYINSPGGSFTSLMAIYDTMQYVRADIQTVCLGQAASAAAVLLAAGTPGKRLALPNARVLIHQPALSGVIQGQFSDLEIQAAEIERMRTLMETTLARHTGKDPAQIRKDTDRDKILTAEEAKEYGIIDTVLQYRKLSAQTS
Sequence of MMP 7 (P09237 95-267, species assumed): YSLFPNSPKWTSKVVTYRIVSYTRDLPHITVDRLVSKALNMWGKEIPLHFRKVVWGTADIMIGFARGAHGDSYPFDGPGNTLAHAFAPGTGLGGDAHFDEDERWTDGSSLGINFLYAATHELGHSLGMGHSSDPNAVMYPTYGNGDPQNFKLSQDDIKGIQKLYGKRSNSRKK
Sequence of Cathepsin L (P07711 114-333, species assumed): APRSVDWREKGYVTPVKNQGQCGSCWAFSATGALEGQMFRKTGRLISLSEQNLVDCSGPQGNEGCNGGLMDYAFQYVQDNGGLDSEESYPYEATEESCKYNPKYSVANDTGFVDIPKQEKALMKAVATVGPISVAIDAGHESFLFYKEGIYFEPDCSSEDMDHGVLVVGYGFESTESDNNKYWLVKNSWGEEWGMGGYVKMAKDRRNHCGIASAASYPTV
T9 sequence (P51878 137-434, species assumed): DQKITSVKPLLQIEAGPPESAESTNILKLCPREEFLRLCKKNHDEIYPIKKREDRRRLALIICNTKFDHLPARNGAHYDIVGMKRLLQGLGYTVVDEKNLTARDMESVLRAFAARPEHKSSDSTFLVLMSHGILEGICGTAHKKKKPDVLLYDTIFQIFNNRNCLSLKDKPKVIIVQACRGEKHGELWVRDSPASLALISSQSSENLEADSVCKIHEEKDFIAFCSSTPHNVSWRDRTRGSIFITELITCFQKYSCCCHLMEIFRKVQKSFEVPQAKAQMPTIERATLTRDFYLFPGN
Sequence of MMP 3 (P08254 100-477, species assumed): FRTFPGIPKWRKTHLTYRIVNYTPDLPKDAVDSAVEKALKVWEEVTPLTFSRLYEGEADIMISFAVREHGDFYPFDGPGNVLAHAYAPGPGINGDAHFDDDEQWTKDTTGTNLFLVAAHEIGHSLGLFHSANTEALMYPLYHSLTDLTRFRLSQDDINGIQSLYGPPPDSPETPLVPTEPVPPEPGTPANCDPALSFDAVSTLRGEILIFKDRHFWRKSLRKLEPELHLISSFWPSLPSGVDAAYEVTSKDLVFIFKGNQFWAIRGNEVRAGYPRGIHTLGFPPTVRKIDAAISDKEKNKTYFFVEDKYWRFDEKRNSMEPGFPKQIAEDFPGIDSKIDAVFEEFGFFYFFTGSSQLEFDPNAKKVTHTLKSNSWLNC
T8 sequence (P00784 134-345): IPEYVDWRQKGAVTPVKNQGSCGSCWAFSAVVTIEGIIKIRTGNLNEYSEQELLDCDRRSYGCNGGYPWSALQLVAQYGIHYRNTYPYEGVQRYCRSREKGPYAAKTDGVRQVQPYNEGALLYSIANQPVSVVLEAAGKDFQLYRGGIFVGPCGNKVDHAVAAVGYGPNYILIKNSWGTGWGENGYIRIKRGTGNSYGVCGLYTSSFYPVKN
Sequence of Cathepsin V (O60911 114-334, species assumed): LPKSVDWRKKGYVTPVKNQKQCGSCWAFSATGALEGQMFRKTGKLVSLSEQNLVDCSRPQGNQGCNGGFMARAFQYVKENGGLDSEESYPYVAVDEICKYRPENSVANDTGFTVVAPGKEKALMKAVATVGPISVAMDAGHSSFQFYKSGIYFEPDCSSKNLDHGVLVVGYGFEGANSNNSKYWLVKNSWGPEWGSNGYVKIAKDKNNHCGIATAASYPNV
Sequence of Cathepsin H (P09668 98-335, species assumed): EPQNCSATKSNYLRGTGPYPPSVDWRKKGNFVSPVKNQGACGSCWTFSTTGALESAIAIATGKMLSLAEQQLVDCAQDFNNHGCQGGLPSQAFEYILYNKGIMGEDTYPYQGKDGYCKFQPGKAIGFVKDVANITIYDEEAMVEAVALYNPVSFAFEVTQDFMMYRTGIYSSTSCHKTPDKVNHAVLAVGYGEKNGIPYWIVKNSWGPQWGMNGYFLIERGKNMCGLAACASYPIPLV
Sequence of Cathepsin S (P25774 115-331, species assumed): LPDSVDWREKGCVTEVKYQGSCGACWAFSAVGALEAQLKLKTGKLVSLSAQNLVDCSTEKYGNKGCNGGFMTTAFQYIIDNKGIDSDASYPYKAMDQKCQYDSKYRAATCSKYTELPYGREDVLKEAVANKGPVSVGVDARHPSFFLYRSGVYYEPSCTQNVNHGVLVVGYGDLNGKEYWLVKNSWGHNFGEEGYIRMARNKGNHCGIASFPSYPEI
T13 sequence (Q92851 220-521, species assumed): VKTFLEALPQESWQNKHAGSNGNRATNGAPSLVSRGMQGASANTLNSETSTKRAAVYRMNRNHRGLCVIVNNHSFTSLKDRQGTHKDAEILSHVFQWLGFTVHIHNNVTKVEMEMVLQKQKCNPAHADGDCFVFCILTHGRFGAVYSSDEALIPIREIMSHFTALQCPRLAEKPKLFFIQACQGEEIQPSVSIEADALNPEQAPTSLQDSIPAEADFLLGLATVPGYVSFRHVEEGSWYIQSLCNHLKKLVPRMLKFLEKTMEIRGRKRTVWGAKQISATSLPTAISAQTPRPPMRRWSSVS
Sequence of Chymase (P23946 22-247, species assumed): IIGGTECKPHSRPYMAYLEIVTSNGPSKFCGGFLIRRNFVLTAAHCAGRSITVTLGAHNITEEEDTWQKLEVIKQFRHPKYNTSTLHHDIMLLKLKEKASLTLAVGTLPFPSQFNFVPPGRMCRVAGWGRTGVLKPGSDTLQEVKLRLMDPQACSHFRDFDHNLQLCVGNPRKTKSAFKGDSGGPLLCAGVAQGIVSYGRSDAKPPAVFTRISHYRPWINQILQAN
T2 sequence (O14672 214-748, species assumed): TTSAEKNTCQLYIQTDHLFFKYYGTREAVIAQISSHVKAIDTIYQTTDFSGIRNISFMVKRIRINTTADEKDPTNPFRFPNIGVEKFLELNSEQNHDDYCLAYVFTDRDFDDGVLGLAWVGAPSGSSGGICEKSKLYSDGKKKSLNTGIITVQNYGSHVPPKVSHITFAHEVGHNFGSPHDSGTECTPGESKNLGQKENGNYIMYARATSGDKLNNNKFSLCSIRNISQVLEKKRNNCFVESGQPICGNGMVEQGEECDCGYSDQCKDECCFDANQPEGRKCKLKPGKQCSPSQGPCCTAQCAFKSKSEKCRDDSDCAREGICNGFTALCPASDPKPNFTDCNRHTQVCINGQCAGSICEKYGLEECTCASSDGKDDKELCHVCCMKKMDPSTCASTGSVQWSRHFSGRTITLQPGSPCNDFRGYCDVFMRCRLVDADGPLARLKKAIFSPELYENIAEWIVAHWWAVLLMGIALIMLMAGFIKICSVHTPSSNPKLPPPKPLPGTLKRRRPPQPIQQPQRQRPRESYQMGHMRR
T16 sequence (P29466 120-404, species assumed): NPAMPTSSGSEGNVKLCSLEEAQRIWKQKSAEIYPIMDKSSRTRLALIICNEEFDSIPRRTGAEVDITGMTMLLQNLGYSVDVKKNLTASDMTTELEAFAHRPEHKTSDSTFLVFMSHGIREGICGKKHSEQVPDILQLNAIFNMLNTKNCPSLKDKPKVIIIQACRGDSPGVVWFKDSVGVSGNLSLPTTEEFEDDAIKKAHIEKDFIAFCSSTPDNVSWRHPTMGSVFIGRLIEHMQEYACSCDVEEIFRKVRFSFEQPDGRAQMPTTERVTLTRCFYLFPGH
T10 sequence (P49662 81-377, species assumed): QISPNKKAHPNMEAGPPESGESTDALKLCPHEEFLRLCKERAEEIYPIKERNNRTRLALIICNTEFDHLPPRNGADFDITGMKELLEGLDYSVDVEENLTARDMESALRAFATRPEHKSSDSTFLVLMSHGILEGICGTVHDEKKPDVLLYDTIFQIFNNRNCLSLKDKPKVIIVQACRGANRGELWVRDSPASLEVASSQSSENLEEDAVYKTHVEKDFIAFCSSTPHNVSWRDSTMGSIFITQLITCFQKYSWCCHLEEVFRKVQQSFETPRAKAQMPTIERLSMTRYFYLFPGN
T15 sequence (P70343 81-373): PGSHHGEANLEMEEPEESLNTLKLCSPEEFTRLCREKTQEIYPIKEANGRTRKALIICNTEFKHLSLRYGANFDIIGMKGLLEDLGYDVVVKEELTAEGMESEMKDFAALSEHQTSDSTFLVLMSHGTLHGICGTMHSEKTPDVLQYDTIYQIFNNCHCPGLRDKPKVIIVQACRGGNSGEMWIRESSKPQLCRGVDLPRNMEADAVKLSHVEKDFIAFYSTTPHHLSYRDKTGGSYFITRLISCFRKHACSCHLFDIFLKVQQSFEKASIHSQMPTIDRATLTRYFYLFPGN

Structure (SMILES): CNC(=O)[C@H](Cc1c[nH]c2ccccc12)NC(=O)[C@@H](CC(=O)NO)CC(C)C [GM6001]
- IC50 (MMP 3): 0.0163 µM
- IC50 (MMP 13): 0.535 nM
- IC50 (TACE): 9.1 nM
- IC50 (MMP 7): 0.00438 µM
- IC50 (MMP 12): 0.00117 µM
- IC50 (ADAM10): 0.0811 µM
- IC50 (MMP 14): 0.00124 µM

Structure (SMILES): O=C(N[C@@H](Cc1ccccc1)C(=O)N[C@@H](Cc1ccccc1)B(O)O)c1cnccn1 [Compound 31, ((R)-2-phenyl-1-((S)-3-phenyl-2-(pyrazine-2-carboxamido)propanamido)ethyl)boronic acid]
- IC50 (HepG2 proteasome): 50 ± 10 nM
- IC50 (ClpP1P2): 7.5 ± 2.6 µM
- MIC50 (M. tuberculosis H37Rv; 5 days): 6 µM (≈ 2.51 µg/mL)
- MIC90 (M. tuberculosis H37Rv; 5 days): 20 µM (≈ 8.37 µg/mL)
- M. smegmatis ΔprcAB MIC50 (M. smegmatis ΔprcAB): 16.5 µM and 16.5 ± 8.5 µM

Structure (SMILES): CC(C)C[C@H](NP(=O)(O)O[C@@H]1O[C@@H](C)[C@H](O)[C@@H](O)[C@H]1O)C(=O)N[C@@H](Cc1c[nH]c2ccccc12)C(=O)O [Phosphoramidon]
- IC50 (Neprilysin): 0.0422 µM

Structure (SMILES): O=C(N[C@@H](Cc1ccccc1)C(=O)N[C@@H](CCc1ccccc1)B(O)O)c1ccccc1 [Compound 51, ((R)-1-((S)-2-benzamido-3-phenylpropanamido)-3-phenylpropyl)boronic acid]
- IC50 (HepG2 proteasome): 167 ± 59 nM
- IC50 (ClpP1P2): 1.5 ± 0.5 µM
- MIC50 (M. tuberculosis H37Rv; 5 days): 1 ± 0.2 µM (≈ 0.43 µg/mL)
- MIC90 (M. tuberculosis H37Rv; 5 days): 6 ± 0.2 µM (≈ 2.58 µg/mL)
- M. smegmatis ΔprcAB MIC50 (M. smegmatis ΔprcAB): 2.7 ± 0.5 µM

Structure (SMILES): CC(C)C[C@H](NC(=O)[C@@H](NC(=O)N[C@@H](Cc1ccccc1)C(=O)O)[C@@H]1CCN=C(N)N1)C(=O)N[C@H](C=O)Cc1ccccc1 [Chymostatin, reference compound]
- IC50 (Cathepsin G): 3.83 µM
- IC50 (Chymase): 0.0915 µM

Structure (SMILES): O=C(N[C@@H](Cc1ccccc1)C(=O)N[C@@H](CCc1ccccc1)B(O)O)c1cnccn1 [Compound 32, ((R)-3-phenyl-1-((S)-3-phenyl-2-(pyrazine-2-carboxamido)propanamido)propyl)boronic acid]
- IC50 (HepG2 proteasome): 70 ± 10 nM
- IC50 (ClpP1P2): 7.3 ± 1.9 µM
- MIC50 (M. tuberculosis H37Rv; 5 days): 6 µM (≈ 2.59 µg/mL)
- MIC90 (M. tuberculosis H37Rv; 5 days): 25 µM (≈ 10.8 µg/mL)
- M. smegmatis ΔprcAB MIC50 (M. smegmatis ΔprcAB): 7 ± 1 µM

Structure (SMILES): O=C(N[C@@H](Cc1ccc(O)cc1)C(=O)N[C@@H](CCc1ccccc1)B(O)O)c1cnccn1 [Compound 57]
- IC50 (HepG2 proteasome): 533 ± 103 nM
- IC50 (ClpP1P2): 7.5 ± 4.5 µM
- improvement of M. tuberculosis MIC50 over compound 1 (M. tuberculosis H37Rv): 5 fold
- MIC50 (μM) against M. tuberculosis H37Rv (M. tuberculosis H37Rv; 5 days): 0.8 ± 0 µM (≈ 0.359 µg/mL)
- MIC50 (M. tuberculosis H37Rv; 5 days): 0.8 µM (≈ 0.359 µg/mL)
- MIC90 (M. tuberculosis H37Rv; 5 days): 3 µM (≈ 1.34 µg/mL)
- M. smegmatis ΔprcAB MIC50 (M. smegmatis ΔprcAB): 8 ± 2.8 µM

Structure (SMILES): CC(=O)N[C@@H](CC(C)C)C(=O)N[C@@H](CC(C)C)C(=O)N[C@H](C=O)CCCNC(=N)N [Leupeptin, reference compound]
- IC50 (Kallikrein 1): 26.7 µM

Structure (SMILES): CC(C)C[C@H](NC(=O)[C@H]1O[C@@H]1C(=O)O)C(=O)NCCCCN=C(N)N [Compound E64]
- IC50 (Cathepsin C): 0.607 µM
- IC50 (Cathepsin B): 0.00987 µM
- IC50 (Cathepsin L): 0.00999 µM
- IC50 (Cathepsin H): 0.198 µM
- IC50 (Calpain 1): 0.098 µM
- IC50 (Cathepsin V): 0.0118 µM
- IC50 (Papain): 0.000936 µM
- IC50 (Cathepsin S): 0.00939 µM

Structure (SMILES): CC[C@H](C)[C@H](NC(C)=O)C(=O)N[C@@H](CCC(=O)O)C(=O)N[C@H](C(=O)N[C@H](C=O)CC(=O)O)[C@@H](C)O [IETD-CHO] (Ac-IETD-aldehyde)
- IC50 (Caspase 5): 0.0213 µM
- IC50 (Caspase 4): 2.73 µM
- IC50 (Caspase 8): 0.00166 µM
- IC50 (Caspase 9): 0.0553 µM
- IC50 (Caspase 10): 0.0177 µM
- IC50 (Caspase 2): 0.626 µM
- IC50 (Caspase 11): 0.68 µM
- IC50 (Caspase 1): 0.0545 µM

Structure (SMILES): CC(=O)N[C@@H](CC(=O)O)C(=O)N[C@@H](CCC(=O)O)C(=O)N[C@H](C(=O)N[C@H](C=O)CC(=O)O)C(C)C [DEVD-CHO]
- IC50 (Caspase 7): 0.0011 µM
